The results in this text go back to US20230382998A1, “METHODS FOR TREATING INFLAMMATORY BOWEL DISEASES WITH a4B7 INTEGRIN ANTAGONISTS” (Protagonist Therapeutics, Inc., priority 2022, published 2023).

A short description of series [1]: DTT (Dithiothreitol) assay, stability to gastric environment under reduced conditions. The series is classed as physicochemical. On the procedure: The compound of formula (I) or a pharmaceutically acceptable salt thereof comprises a half-life from approximately 1 minute to approximately 180 minutes.
Series [2] concerns subjects with moderate to severe active ulcerative colitis. The experiment in a line: Phase 2 randomized, double-blind, placebo-controlled study of oral Compound (I), 12-week induction. Type of series: in vivo, human. To be noted: FIG. 3; for proportion of subjects achieving clinical remission at Week 12, total: 150 mg BID + 450 mg BID. From the text:
As used herein, the term “clinical remission rate” refers to when the symptoms of IBD have lessened to the point that they're mostly absent or gone, including endoscopic remission, wherein inflammation is seen during a colonoscopy or a sigmoidoscopy and determined by a healthcare provider that the lining of the digestive tract is improved or healed. […] As used herein, the term “compound of formula (I)” or Compound (I) refers to a peptide compound having the following structure:
The study also evaluates the pharmacokinetic (PK) and pharmacodynamics (PD) and biomarker responses to treatment with oral Compound (I).
This is a two-part study: Part 1 is a randomized, double-blind, placebo-controlled, parallel design 12-week induction treatment period in patients with moderate to severe active UC; and Part 2 is an extended treatment period of 40 weeks that will include subjects who successfully complete Part 1. Subjects who complete the Week 12 visit for Part 1 will be eligible to enter Part 2.
Part 1 is a 12-week randomized, double-blind, placebo-controlled, parallel design study in adult subjects with moderate to severe active UC. Eligible subjects are randomized 1:1:1 to Compound (I) 450 mg twice daily (BID), Compound (I) 150 mg BID, or placebo BID. Subjects must have a biopsy-confirmed diagnosis of UC. […] Subjects with a history of prior vedolizumab treatment will be excluded. Randomization will be stratified by prior failure to a TNFα antagonist or an IL-12/23 antagonist.
Primary outcome measures include the proportion of subjects achieving clinical remission at Week 12 compared to placebo. Clinical remission is determined using the Adapted Mayo score (sum of 3 subscores from the Mayo score): • Stool frequency subscore (SFS) • Rectal bleeding subscore (RBS) • Endoscopic subscore (ESS)
Efficacy is assessed, at least in part, based on the Mayo score. The Mayo score includes 4 components: Stool Frequency Subscore (SFS), Rectal Bleeding Subscore (RBS), Endoscopic Subscore (ESS) and Physician's Global Assessment (PGA). Each of the individual scores range from 0 to 3 with higher number indicating higher severity): • Complete Mayo Score is a sum of all 4 subscores (SFS, RBS, ESS and PGA) and ranges from 0 to 12 points. • Adapted Mayo Score is a sum of 3 subscores (SFS, RBS and ESS). The Adapted Mayo score ranges from 0 to 9 points. • Partial Mayo Score is a sum of 3 subscores (SFS, RBS and PGA) ranging from 0 to 9 points.
Blood samples for measurement of Compound (I) plasma concentrations will be collected at 0 (within 1 hour pre-dose) and at 1, 2, and 4 hours post-dose on Week 0 (Study Day 1) and Week 12. A single pre-dose sample should be collected within 1 hour prior to the first dose of the day on each clinic visit.
Blood (4 mL) samples for PK analysis will be obtained in K2EDTA tubes prior to dosing and at the time points delineated in the study schedule. All samples (except those collected post-dose on Day 0 and Day 84) should be obtained prior to the daily dosing of study drug (i.e. Ctrough).

The mark [3] stands for this setting: trough concentration quartile Q1 at week 12.
[4] abbreviates: trough concentration quartile Q2 at week 12.
The mark [5] stands for this setting: trough concentration quartile Q3 at week 12.
[6] abbreviates: trough concentration quartile Q4 at week 12.

Numbered stars: 1 amine (or outer) side, 2 acyl side, 3 side chain; on linkers, the order of the positions; unused ones are H or OH. Bridge positions count the residues as written; N and C are the ends. Square brackets hold non-standard residues; d marks the D form. Peptide text beside a SMILES is read from it. I, II: the chains in the order shown. ξ: configuration not given here. Phe(4-tBu) = CC(C)(C)c1ccc(C[C@H](N)C(=O)O)cc1; Diglycolyl = O=C(COCC(=O)[*:2])[*:1]; NMeR = CN[C@@H](CCCNC(=N)N)C(=O)O; β3hE = N[C@@H](CCC(=O)O)CC(=O)O; Thr(3ξ) = CC(O)[C@H](N)C(=O)O; X1 = O=C(c1ccccc1C[*:2])[*:1]; Pen = CC(C)(S)[C@H](N)C(=O)O

As to `CC(C)C[C@@H]1NC(=O)[C@H](C(C)O)NC(=O)[C@H](CC(=O)O)NC(=O)[C@H](CO)NC(=O)[C@H](CCCNC(=N)N)N(C)C(=O)c2ccccc2CSC(C)(C)[C@@H](C(=O)N[C@@H](Cc2ccc(C(C)(C)C)cc2)C(=O)N[C@@H](CCC(=O)O)CC(=O)N[C@H](CCCCNC(=O)COCC(=O)NCCCC[C@@H](NC(=O)C[C@H](CCC(=O)O)NC(=O)[C@H](Cc2ccc(C(C)(C)C)cc2)NC(=O)[C@H]2NC(=O)[C@H](CC(C)C)NC(=O)[C@H](C(C)O)NC(=O)[C@H](CC(=O)O)NC(=O)[C@H](CO)NC(=O)[C@H](CCCNC(=N)N)N(C)C(=O)c3ccccc3CSC2(C)C)C(=O)O)C(=O)O)NC1=O` (stereo partly drawn) [compound of formula (I)] (I: [NMeR]SD[Thr(3ξ)]L[Pen][Phe(4-tBu)][β3hE][dK]-OH / II: [NMeR]SD[Thr(3ξ)]L[Pen][Phe(4-tBu)][β3hE][dK]-OH; linker I:9-II:9 via Diglycolyl; linker I:N-I:6, II:N-II:6 via X1), the half-life (as a rule, how long it takes for the measured level to halve) in series [1] was above 2 h. Besides, the “proportion of subjects achieving clinical remission at Week 12, total” value in series [2] (setting [3]) was 33.3%; in series [2] (setting [4]), 40%; in series [2] (setting [5]), 13.3%; in series [2] (setting [6]), 18.8%. The “proportion of subjects achieving clinical remission at Week 12, part being 450 mg BID dose” value was determined as 26.7% in series [2] (setting [3]), 26.7% in series [2] (setting [4]), 6.7% in series [2] (setting [5]) and 6.3% in series [2] (setting [6]).
